Experimental data taken from the CheMixHub viscosity set.

Test: xn = mol fraction of the nth substance listed

Clc1cccc2ccccc12 + CCCCO
viscosity [mPa·s], 101.33 kPa
Settings | x1 = 0.1002 | x1 = 0.1997 | x1 = 0.2969 | x1 = 0.4016 | x1 = 0.5004 | x1 = 0.599 | x1 = 0.6949 | x1 = 0.8006 | x1 = 0.8969
298.15 K | 2.486 | 2.447 | 2.383 | 2.376 | 2.379 | 2.43 | 2.491 | 2.591 | 2.697
303.15 K | 2.176 | 2.149 | 2.11 | 2.102 | 2.109 | 2.153 | 2.207 | 2.301 | 2.414
308.15 K | 1.927 | 1.894 | 1.865 | 1.854 | 1.864 | 1.914 | 1.977 | 2.059 | 2.173

Clc1ccccc1 + CCCCOC(C)=O
viscosity [mPa·s], 101 kPa
Settings | 298.15 K | 308.15 K
x2 = 0.0484 | 0.744 | 0.669
x2 = 0.1504 | 0.723 | 0.651
x2 = 0.2515 | 0.706 | 0.636
x2 = 0.349 | 0.692 | 0.624
x2 = 0.4447 | 0.682 | 0.614
x2 = 0.4933 | 0.678 | 0.61
x2 = 0.5503 | 0.674 | 0.605
x2 = 0.6502 | 0.669 | 0.599
x2 = 0.7514 | 0.667 | 0.595
x2 = 0.8498 | 0.668 | 0.593
x2 = 0.9417 | 0.671 | 0.593

N#CCCCCC#N + CCCCOC(C)=O
303.15 K, 101.33 kPa
Settings | viscosity [mPa·s]
x1 = 0.0984 | 0.7145
x1 = 0.3003 | 1.052
x1 = 0.3857 | 1.281
x1 = 0.4963 | 1.663
x1 = 0.5929 | 2.082
x1 = 0.6974 | 2.631
x1 = 0.8455 | 3.61

CCc1ccccc1 + CCCO
viscosity [mPa·s], 101.33 kPa
Settings | x2 = 0.3 | x2 = 0.5 | x2 = 0.7 | x2 = 0.9
303 K | 0.646 | 0.826 | 1.01 | 1.335
313 K | 0.561 | 0.697 | 0.839 | 1.084
323 K | 0.494 | 0.598 | 0.7 | 0.886

COC(C)(C)C + CCCO
Settings | viscosity [mPa·s]
293.15 K, 101 kPa, x1 = 0.0599 | 1.835
298.15 K, 101 kPa, x1 = 0.0403 | 1.735
298.15 K, 101 kPa, x1 = 0.1495 | 1.275
298.15 K, 101.33 kPa, x1 = 0.0111 | 1.902
298.15 K, 101.33 kPa, x1 = 0.0293 | 1.804
298.15 K, 101.33 kPa, x1 = 0.0591 | 1.651
298.15 K, 101.33 kPa, x1 = 0.1133 | 1.416
298.15 K, 101.33 kPa, x1 = 0.1374 | 1.327
298.15 K, 101.33 kPa, x1 = 0.2501 | 0.998
298.15 K, 101.33 kPa, x1 = 0.3008 | 0.889
298.15 K, 101.33 kPa, x1 = 0.324 | 0.85
298.15 K, 101.33 kPa, x1 = 0.3581 | 0.792
298.15 K, 101.33 kPa, x1 = 0.3641 | 0.779
298.15 K, 101.33 kPa, x1 = 0.4004 | 0.729
298.15 K, 101.33 kPa, x1 = 0.4451 | 0.671
298.15 K, 101.33 kPa, x1 = 0.488 | 0.624
298.15 K, 101.33 kPa, x1 = 0.5535 | 0.562
298.15 K, 101.33 kPa, x1 = 0.6157 | 0.512
298.15 K, 101.33 kPa, x1 = 0.677 | 0.471
298.15 K, 101.33 kPa, x1 = 0.7585 | 0.427
298.15 K, 101.33 kPa, x1 = 0.8246 | 0.397
298.15 K, 101.33 kPa, x1 = 0.8813 | 0.378
298.15 K, 101.33 kPa, x1 = 0.9491 | 0.356
298.15 K, 101.33 kPa, x2 = 0.014 | 0.344

COCCOCCOCCOCCOC + CCCO
viscosity [mPa·s], 101 kPa
Settings | 298.15 K | 308.15 K
x1 = 0.0071 | 1.913 | 1.492
x1 = 0.0125 | 1.9 | 1.485
x1 = 0.0309 | 1.872 | 1.475
x1 = 0.0504 | 1.852 | 1.463
x1 = 0.1024 | 1.841 | 1.467
x1 = 0.1342 | 1.861 | 1.488
x1 = 0.1847 | 1.908 | 1.528
x1 = 0.2444 | 1.989 | 1.593
x1 = 0.2916 | 2.062 | 1.645
x1 = 0.3271 | 2.126 | 1.697
x1 = 0.369 | 2.192 | 1.754
x1 = 0.4386 | 2.31 | 1.84
x1 = 0.4814 | 2.384 | 1.896
x1 = 0.5238 | 2.466 | 1.953
x1 = 0.5941 | 2.577 | 2.041
x1 = 0.6423 | 2.665 | 2.104
x1 = 0.7174 | 2.797 | 2.205
x1 = 0.7487 | 2.855 | 2.247
x1 = 0.7864 | 2.91 | 2.291
x1 = 0.8401 | 3.007 | 2.36

Clc1cccc2ccccc12 + CCCO
viscosity [mPa·s], 101.33 kPa
Settings | x1 = 0.1004 | x1 = 0.2017 | x1 = 0.2983 | x1 = 0.395 | x1 = 0.5003 | x1 = 0.6002 | x1 = 0.6993 | x1 = 0.7991 | x1 = 0.9003
298.15 K | 1.968 | 2.039 | 2.091 | 2.172 | 2.255 | 2.349 | 2.448 | 2.567 | 2.716
303.15 K | 1.745 | 1.805 | 1.854 | 1.918 | 1.999 | 2.077 | 2.166 | 2.275 | 2.417
308.15 K | 1.57 | 1.62 | 1.672 | 1.714 | 1.789 | 1.86 | 1.943 | 2.043 | 2.178

CCc1ccccc1 + CCO
viscosity [mPa·s], 101.33 kPa
Settings | x2 = 0.4 | x2 = 0.6 | x2 = 0.8 | x2 = 0.9
303 K | 0.625 | 0.732 | 0.842 | 0.9
313 K | 0.547 | 0.627 | 0.706 | 0.752
323 K | 0.482 | 0.54 | 0.602 | 0.632

Clc1cccc2ccccc12 + CCO
viscosity [mPa·s], 101.33 kPa
Settings | x1 = 0.0773 | x1 = 0.2002 | x1 = 0.3006 | x1 = 0.3989 | x1 = 0.5008 | x1 = 0.5979 | x1 = 0.7026 | x1 = 0.8011 | x1 = 0.9009
298.15 K | 1.238 | 1.455 | 1.63 | 1.779 | 1.953 | 2.11 | 2.298 | 2.47 | 2.655
303.15 K | 1.119 | 1.314 | 1.471 | 1.606 | 1.757 | 1.89 | 2.045 | 2.214 | 2.389
308.15 K | 1.016 | 1.192 | 1.334 | 1.456 | 1.588 | 1.714 | 1.865 | 2.006 | 2.158

COCCOCCOCCOCCOC + CCOC(=O)OCC
298.15 K, 101.33 kPa
Settings | viscosity [mPa·s]
x1 = 0.0049 | 0.752
x1 = 0.014 | 0.772
x1 = 0.0274 | 0.796
x1 = 0.044 | 0.824
x1 = 0.068 | 0.879
x1 = 0.0984 | 0.938
x1 = 0.1416 | 1.029
x1 = 0.2036 | 1.164
x1 = 0.2814 | 1.348
x1 = 0.3146 | 1.434
x1 = 0.3497 | 1.519
x1 = 0.3949 | 1.634
x1 = 0.4546 | 1.798
x1 = 0.5017 | 1.939
x1 = 0.5551 | 2.083
x1 = 0.5999 | 2.204
x1 = 0.6478 | 2.349
x1 = 0.691 | 2.478
x1 = 0.7376 | 2.614
x1 = 0.7849 | 2.76
x1 = 0.8377 | 2.915
x1 = 0.8758 | 3.028
x1 = 0.9345 | 3.218
x1 = 0.9719 | 3.328
x2 = 0.0132 | 3.378
